Literature values as cited in patent publication US11480580B2, “Methods and reagents to label bacteria and virus and identify their interacting proteins” (priority 2019, dated 2022).

Test system: ZIKV
Conditions: prior studies

CN(C)CCCN1c2ccccc2Sc2ccc(Cl)cc21 [chlorpromazine]
ZIKV infection: blocked
